Values of other authors as cited in patent publication US6121280A, “Azabicyclic rotomase inhibitors” (Pfizer Inc., priority 1999, dated 2000).

System: neuronal cell line and culture models
Conditions: Lyons et al. 1994, Snyder et al. 1995

In the case of `C=CC[C@@H]1/C=C(\C)C[C@H](C)C[C@H](OC)[C@H]2O[C@@](O)(C(=O)C(=O)N3CCCC[C@H]3C(=O)O[C@H](/C(C)=C/[C@@H]3CC[C@@H](O)[C@H](OC)C3)[C@H](C)[C@@H](O)CC1=O)[C@H](C)C[C@@H]2OC` [FK-506], the “neurite outgrowth in vitro” value is listed as “promoted neurite outgrowth”.
